{"source": "paper PMC10394814", "about": "“Discovery and evaluation of active compounds from Xuanfei Baidu formula against COVID-19 via SARS-CoV-2 M^pro” (Chinese Medicine, 2023)", "key": {"Omicron BA.1.1 variant": {"system": "Omicron BA.1.1 variant", "experiment": "Antiviral activity assay (CPE) in Vero E6 cells, Omicron BA.1.1", "format": "cell-based, SARS-CoV-2", "settings": "Severe acute respiratory syndrome coronavirus 2, Vero C1008, 48 h"}, "Omicron BA.2.3 variant": {"system": "Omicron BA.2.3 variant", "experiment": "Antiviral activity assay (CPE) in Vero E6 cells, Omicron BA.2.3", "format": "cell-based, SARS-CoV-2", "settings": "Severe acute respiratory syndrome coronavirus 2, Vero C1008, 48 h"}}}
{"smiles": "C[C@@H]1O[C@@H](O[C@@H]2[C@@H](O)[C@H](OCCc3ccc(O)c(O)c3)O[C@H](CO)[C@H]2OC(=O)/C=C/c2ccc(O)c(O)c2)[C@H](O)[C@H](O)[C@H]1O", "note": "[Acteoside]", "values": [{"measurement": "EC50", "setting": "Omicron BA.1.1 variant", "result": 41.3, "unit": "µM"}, {"measurement": "EC50", "setting": "Omicron BA.2.3 variant", "result": 70.4, "unit": "µM"}]}
